In brackets after ≈: the same amount, converted by molar mass.
Legend:
[1] = test system: linezolid-resistant MDR S. epidermidis (LR-MDRSE) isolates; experiment: microbe, parasite or virus in culture; assay type: cell-based, Staphylococcus epidermidis; conditions: for Increase of MIC between isolates: STA1 (Day 24) to STA3 (Day 240)
Method: Isolates were identified by MALDI-TOF mass spectrometry (VITEK MS, bioMérieux, Marcy-l’Étoile, France). Antibiotic susceptibility testing was performed using the AST-P668 bioMérieux card using a VITEK XL automated system (bioMérieux). Dalbavancin, ceftaroline, delafloxacin, tigecycline and daptomycin MICs were determined using a 0.5 McFarland bacterial inoculum on Mueller–Hinton agar plates with gradient strips (Liofilchem, Roseto degli Abruzzi, Italy) incubated for 24 h at 35°C. Interpretation of the susceptibility was made according to the EUCAST 2022 criteria.

[2] = Dalbavancin therapeutic drug monitoring: plasma trough concentration and extrapolated fAUC0–24/MIC; assay type: in vivo, patient; conditions: for Plasma trough concentration: 1500 mg IV, LC-MS
Excerpt: We therefore used this methodology for fAUC0–24 determination.

S. aureus = conditions: seven isolates of S. aureus (including four vancomycin-intermediate strains); ref 14 (Lepak et al.); cited from earlier work
Excerpt: fAUC0–24/MIC best correlates with in vivo efficacy of dalbavancin.[13]

LR-MDRSE PJI = assay type: in vivo, patient
Method: A person underwent a revision of a medial unicompartmental knee arthroplasty to total knee arthroplasty (TKA) for progressive arthritis of the lateral joint.
It was subsequently decided to perform debridement, antibiotics and implant retention (DAIR) with a change of modular implants. […] A treatment shift to dalbavancin 1500 mg IV on Days 35, 49, 71 and 106, combined with doxycycline 200 mg/day for 3 months was initiated.
The evolution was considered unfavourable due to a loco-regional inflammatory syndrome with persistent chronic pain.
A revision of the knee was decided upon, with five bacteriological samples collected. As previously, they tested positive with the same LR-MDRSE strain (Day 371). Ceftaroline (1800 mg/day) and doxycycline (200 mg/day) combination treatment was administered for the next 12 weeks. […] His C-reactive protein level was <4 mg/L (reference range: <4 mg/L). However, suppressive doxycycline therapy was maintained (200 mg/day).

[3] = cited from earlier work
Method: Dalbavancin has a similar mechanism of action and spectrum as vancomycin but with increased potency, higher protein binding and an elimination half-life up to 60 times longer.[10] […] N ... || Because of the long-term duration, dalbavancin therapeutic drug monitoring was performed. Plasma trough concentrations were measured using a validated LC coupled with MS method (Acquity UPLC® BEH C18 and Acquity QDA, Waters, France). […] We therefo ... || Moreover, the clinical infections caused by biofilms poses a serious threat to public health. Staphylococcus spp. biofilms stand out as one of the most prevalent, especially in osteoarticular infection and PJI. […] Thus, new therapeutic strategies targeting biofilms and MDR bacteria are urgently needed.

[4] = Staphylococcus epidermidis, isolate STA1, Day 24, gradient strip, 0.5 McFarland, Mueller–Hinton agar, 24 h at 35°C
[5] = Staphylococcus epidermidis, isolate STA3, Day 240, gradient strip, 0.5 McFarland, Mueller–Hinton agar, 24 h at 35°C
[6] = Staphylococcus epidermidis, 576 h
[7] = after four injections of dalbavancin 1500 mg IV
[8] = ceftaroline 1800 mg/day combined with doxycycline 200 mg/day for 12 weeks after knee revision

With CN(C)c1cc(NC(=O)CNC(C)(C)C)c(O)c2c1C[C@H]1C[C@H]3[C@H](N(C)C)C(O)=C(C(N)=O)C(=O)[C@@]3(O)C(O)=C1C2=O [Tigecycline] the MIC [1, 4] was 0.19 µg/mL (≈ 0.324 µM) and the MIC [1, 5] was 0.25 µg/mL (≈ 0.427 µM).
Nc1nc(-n2cc(C(=O)O)c(=O)c3cc(F)c(N4CC(O)C4)c(Cl)c32)c(F)cc1F [Delafloxacin] showed an MIC [1, 4] of 1 µg/mL (≈ 2.27 µM) and an MIC [1, 5] of 8 µg/mL (≈ 18.2 µM).
With Cc1onc(-c2ccccc2)c1C(=O)N[C@@H]1C(=O)N2[C@@H]1SC(C)(C)[C@@H]2C(=O)O [Oxacillin] the MIC ([1]; Staphylococcus epidermidis) was over 2 µg/mL and the MIC [1, 6] was over 2 µg/mL.
CCC[C@@H]1C[C@@H](C(=O)N[C@@H]([C@H]2O[C@H](SC)[C@H](O)[C@@H](O)[C@H]2O)[C@@H](C)O)N(C)C1 [Lincomycin] showed an MIC ([1]; Staphylococcus epidermidis) of over 8 µg/mL and an MIC [1, 6] of over 8 µg/mL.
With CN[C@H]1C(=O)N[C@@H]2Cc3ccc(cc3)Oc3cc4cc(c3O[C@@H]3O[C@H](C(=O)O)[C@@H](O)[C@H](O)[C@H]3NC(=O)CCCCCCCCC(C)C)Oc3ccc(cc3Cl)[C@@H](O)[C@@H]3NC(=O)[C@H](NC(=O)[C@@H]4NC(=O)[C@@H](NC2=O)c2cc(cc(O)c2Cl)Oc2cc1ccc2O)c1ccc(O)c(c1)-c1c(O[C@H]2O[C@H](CO)[C@@H](O)[C@H](O)[C@@H]2O)cc(O)cc1[C@@H](C(=O)NCCCN(C)C)NC3=O [Dalbavancin] the Plasma trough concentration ([2]; Day 49, 14 days after the last dose) was 18 mg/L, the “Calculated fAUC0–24/MIC ratio” value ([2]; Day 49, assuming an MIC of 0.032 mg/L, extrapolated from single trough, 93% protein bound) was 945 and the “Calculated fAUC0–24/MIC ratio” value ([2]; Day 49, assuming an MIC of 0.5 mg/L) was 60. For the same compound, the Plasma trough concentration ([2]; Day 71, 22 days after the last dose) was 23.6 mg/L, the “Calculated fAUC0–24/MIC ratio” value ([2]; Day 71, assuming an MIC of 0.032 mg/L) was 1239 and the “Calculated fAUC0–24/MIC ratio” value ([2]; Day 71, assuming an MIC of 0.5 mg/L) was 79. For the same compound, the Plasma trough concentration ([2]; Day 106, 35 days after the last dose) was 14.6 mg/L, the “Calculated fAUC0–24/MIC ratio” value ([2]; Day 106, assuming an MIC of 0.032 mg/L) was 766.5 and the “Calculated fAUC0–24/MIC ratio” value ([2]; Day 106, assuming an MIC of 0.5 mg/L) was 49. For the same compound, the “fAUC0–24/MIC value for 1-log kill” value (S. aureus) was 53.3, the “fAUC0–24/MIC value for 2-log kill” value (S. aureus) was 111.1 and the “fAUC0–24/MIC value for net stasis” value (S. aureus) was 27.1. For the same compound, the “Clinical outcome of treatment” value (LR-MDRSE PJI; dalbavancin 1500 mg IV on Days 35, 49, 71 and 106, combined with doxycycline 200 mg/day for 3 months, after DAIR) was “treatment failure”, the “Elimination half-life relative to vancomycin” value [3] was “up to 60 times longer” and the “Bound to plasma proteins” value ([3]; plasma) was 93%. For the same compound, the Half-life ([3]; prolonged half-life) was “about 14 days”, the “Increase of MIC between isolates” value [1, 7] was 4 fold and the “Susceptibility of the strain (in words)” value ([1]; STA1, Day 24) was “susceptible”. The “Susceptibility of the strain (in words)” value ([1]; STA3, Day 240) was “resistant”, the MIC ([1]; isolate STA1, Day 24, gradient strip, 0.5 McFarland, Mueller–Hinton agar, 24 h at 35°C) was 0.032 µg/mL (≈ 0.0176 µM) and the MIC ([1]; isolate STA3, Day 240, gradient strip, 0.5 McFarland, Mueller–Hinton agar, 24 h at 35°C) was 0.5 µg/mL (≈ 0.275 µM).
CC[C@H]1OC(=O)[C@H](C)[C@@H](O[C@H]2C[C@@](C)(OC)[C@@H](O)[C@H](C)O2)[C@H](C)[C@@H](O[C@@H]2O[C@H](C)C[C@H](N(C)C)[C@H]2O)[C@](C)(O)C[C@@H](C)C(=O)[C@H](C)[C@@H](O)[C@]1(C)O [Erythromycin] gave an MIC ([1]; Staphylococcus epidermidis) of over 4 µg/mL and an MIC [1, 6] of over 4 µg/mL.
For CC(=O)NC[C@H]1CN(c2ccc(N3CCOCC3)c(F)c2)C(=O)O1 [Linezolid], the “Susceptibility of the strain (in words)” value ([1]; STA1, Day 24) was “resistant”, the MIC ([1]; Staphylococcus epidermidis) was over 4 µg/mL and the MIC [1, 6] was over 4 µg/mL.
In the case of CO[C@H]1/C=C/O[C@@]2(C)Oc3c(C)c(O)c4c(O)c(c(/C=N/N5CCN(C)CC5)c(O)c4c3C2=O)NC(=O)/C(C)=C\C=C\[C@H](C)[C@H](O)[C@@H](C)[C@@H](O)[C@@H](C)[C@H](OC(C)=O)[C@@H]1C [Rifampin], the “Susceptibility of the strain (in words)” value ([1]; STA1, Day 24) is reported as “resistant”, the MIC ([1]; Staphylococcus epidermidis) is reported as over 2 µg/mL and the MIC [1, 6] is reported as over 2 µg/mL.
CC(=O)O[C@H]1C[C@@]2(C)[C@@H](C[C@@H](O)[C@H]3[C@@]4(C)CC[C@@H](O)[C@@H](C)[C@@H]4CC[C@@]32C)/C1=C(\CCC=C(C)C)C(=O)O [Fusidic acid] showed an MIC ([1]; Staphylococcus epidermidis) of over 4 µg/mL and an MIC [1, 6] of over 4 µg/mL.
For COc1cccc(OC)c1C(=O)N[C@@H]1C(=O)N2[C@@H]1SC(C)(C)[C@@H]2C(=O)O [methicillin], the “Susceptibility of the strain (in words)” value ([1]; STA1, Day 24) was “resistant”.
In the case of CCCCCCCCCC(=O)N[C@@H](Cc1c[nH]c2ccccc12)C(=O)N[C@H](CC(N)=O)C(=O)N[C@@H](CC(=O)O)C(=O)N[C@@H]1C(=O)NCC(=O)N[C@@H](CCCN)C(=O)N[C@@H](CC(=O)O)C(=O)N[C@H](C)C(=O)N[C@@H](CC(=O)O)C(=O)NCC(=O)N[C@H](CO)C(=O)N[C@@H]([C@H](C)CC(=O)O)C(=O)N[C@@H](CC(=O)c2ccccc2N)C(=O)O[C@@H]1C [Daptomycin], the “Increase of MIC between isolates” value [1, 7] is reported as 6 fold.
In the case of CNC(C)C1CCC(N)C(OC2C(N)CC(N)C(OC3OCC(C)(O)C(NC)C3O)C2O)O1 (centres unmarked) [Gentamicin], the MIC ([1]; Staphylococcus epidermidis) is reported as over 8 µg/mL and the MIC [1, 6] is reported as over 8 µg/mL.
With CN[C@H](CC(C)C)C(=O)N[C@H]1C(=O)N[C@@H](CC(N)=O)C(=O)N[C@H]2C(=O)N[C@H]3C(=O)N[C@H](C(=O)N[C@H](C(=O)O)c4cc(O)cc(O)c4-c4cc3ccc4O)[C@H](O)c3ccc(c(Cl)c3)Oc3cc2cc(c3O[C@@H]2O[C@H](CO)[C@@H](O)[C@H](O)[C@H]2O[C@H]2C[C@](C)(N)[C@H](O)[C@H](C)O2)Oc2ccc(cc2Cl)[C@H]1O [Vancomycin] the “Increase of MIC between isolates” value [1] was over 5 fold.
In the case of C[C@@H]1O[C@@H]1P(=O)(O)O [Fosfomycin], the MIC ([1]; Staphylococcus epidermidis) is reported as over 64 µg/mL and the MIC [1, 6] is reported as over 64 µg/mL.
For CC1COc2c(N3CCN(C)CC3)c(F)cc3c(=O)c(C(=O)O)cn1c23 (centres unmarked) [Ofloxacin], the MIC ([1]; Staphylococcus epidermidis) was over 4 µg/mL and the MIC [1, 6] was over 4 µg/mL.
Compound NC[C@H]1O[C@H](O[C@H]2[C@H](O)[C@@H](O[C@H]3O[C@H](CO)[C@@H](O)[C@H](N)[C@H]3O)[C@H](N)C[C@@H]2N)[C@H](N)C[C@@H]1O [Tobramycin] has an MIC ([1]; Staphylococcus epidermidis) of over 8 µg/mL and an MIC [1, 6] of over 8 µg/mL.
With CCO/N=C(\C(=O)N[C@@H]1C(=O)N2C(C(=O)[O-])=C(Sc3nc(-c4cc[n+](C)cc4)cs3)CS[C@H]12)c1nsc(N)n1 [Ceftaroline] the “Clinical evolution under treatment” value (LR-MDRSE PJI; [8]) was “favourable”, the Tolerability of treatment (LR-MDRSE PJI; [8]) was “well tolerated” and the “Susceptibility of the strain (in words)” value ([1]; STA1, Day 24) was “susceptible”. The “Susceptibility of the strain (in words)” value ([1]; STA3, Day 240) was “susceptible”, the MIC [1, 4] was 1 µg/mL (≈ 1.65 µM) and the MIC [1, 5] was 0.75 µg/mL (≈ 1.24 µM).
